Publication PMC12250170, “Synthesis of Novel Podophyllotoxin–Benzothiazole Congeners and Their Biological Evaluation as Anticancer Agents” (International Journal of Molecular Sciences, 2025)
Like-named read-outs stand apart in the source and are kept apart here.

How the values were obtained:
[1] = system: LoVo (colorectal cancer) cells; assay: In vitro cytotoxicity, PrestoBlue assay, LoVo; type: cell-based, human; settings: 48 h, read-out: IC50 ± SD, LoVo
Experimental: (§1) The synthesized compounds were tested and evaluated for their cytotoxicity using an in vitro cytotoxicity assay. We studied five cancer cell lines and one non-cancerous cell line. The cells were purchased from the American Type Culture Collection (ATCC), United States, including HeLa (cervical), LoVo (colorectal), MCF-7 (breast), SKOV3 (ovarian), B16F10 (murine melanoma), and HaCaT (human keratinocyte). Dulbecco’s modified Eagle’s medium (containing 10% FBS) was used to culture HeLa, MCF-7, B16F10, and HaCaT cells, while RPMI 1640 medium (containing 10% FBS) was used for SKOV3 and LoVo cells. The cells were cultured in 25 cm^2 culture flasks (Corning, Corning, NY, USA) in a humidified atmosphere of 5% CO2 at 37 °C and passaged every three days with standard Trypsin-EDTA solution (Gibco, Thermo Fisher Scientific, Waltham, MA, USA). All compounds were initially prepared as stock solutions at a concentration of 10 mM (in DMSO). Serial dilutions were performed in the indicated medium to achieve the required concentration gradient of compounds (20 µM, 10 µM, 5 µM, 2.5 µM, 1.25 µM, 0.625 µM, 0.312 µM). The maximum percentage of DMSO used in the compound solutions was 0.1%, based on the procedure previously described by our group.
(§2) The PrestoBlue assay was performed according to the method previously reported by Strus et al.. The cells (LoVo and B16F10) were seeded in the indicated medium in a 96-well culture plate (Nest Biotechnology) at a density of 1 × 10^4 cells per well (100 µL) and incubated at 37 °C in a 5% CO2 atmosphere. After 24 h of incubation, 100 µL aliquots of the compounds in medium were added to each well, and the cells were further incubated for 48 h. After 48 h, the old medium was removed, and 100 µL of fresh medium was added. Then, 10 µL of PrestoBlue solution (Thermo Fisher Scientific, Waltham, MA, USA) was added to each well and incubated for 60 min. The fluorescence intensity was measured with excitation at 544 nm and emission at 615 nm using a Fluorstar microplate reader (BMG Labtech, Ortenberg, Germany). The results were expressed as a percentage of the intensity relative to that of control cells (non-treated cells).
(§3) Data analysis was carried out using GraphPad Prism 5.0.3. Calculations were performed using MS-Excel version 2021. The cytotoxic effect was expressed as the relative viability of treated cells (percentage growth control) and was calculated as follows: % relative viability = Ae−Ab/Ac−Ab×100% , where Ae is experimental absorbance/fluorescence intensity, Ac is the absorbance/ fluorescence intensity of growth control (only cells with medium), and Ab is the absorbance/fluorescence intensity of a blank (only medium). The IC50 values were obtained by using the sigmoidal dose–response function in GraphPad Prism. The results were expressed as mean ± standard deviation (SD).

[2] = system: B16F10 (murine melanoma) cells; assay: In vitro cytotoxicity, PrestoBlue assay, B16F10; type: cell-based; settings: read-out: IC50 ± SD, B16F10
Experimental: as §1, §2, §3

[3] = system: SKOV-3 (ovarian cancer) cells; assay: In vitro cytotoxicity, crystal violet assay, SKOV-3; type: cell-based, human
Experimental: as §1
(§4) This assay was performed in reference to the method already described. In brief, the cell lines (HeLa, MCF-7, and SKOV-3) were seeded in the indicated medium in a 96-well culture plate (Nest Biotechnology, Wuxi, China) at a density of 1 × 10^4 cells per well (100 µL) in quadruplicates and then incubated at 37 °C in a 5% CO2 atmosphere. After 24 h of incubation, 100 µL aliquots of the compounds in medium at increasing concentrations were added to each well, and the cells were further incubated for 48 h. After the incubation period, the cells were washed with PBS twice, and then with 70% ethanol, followed by staining with 0.05% crystal violet solution in water (ChemPur, Piekary Slaskie, Poland) for 20 min. The excess crystal violet was washed out with distilled water several times. The stained cells then solubilized in 1% Triton™ X-100 Surfact-Amps (POCH SA, Gliwice, Poland) or 10% PBS. The absorbance of each well was measured using Fluostar plate reader at […].
as §3

[4] = system: HeLa cells; assay: Cell cycle analysis by flow cytometry (propidium iodide); type: cell-based, human
Experimental: To determine the possible mechanisms of compounds 7 and 11 in inhibiting the proliferation of cancer cells, cell cycle analysis was performed with the flow cytometry method, as shown in Figure 3. Compound 7 was previously reported to inhibit proliferation of HaCaT cells via cell cycle arrest in G2/M [18]. As a reference, HeLa cells were treated with the indicated concentrations of compounds 7 and 11 for 24 h and 48 h, and the cell cycle phases distribution of treated cells was determined with the propidium iodide (PI) method, as previously described. The effects of novel podophyllotoxin derivatives on cell cycle phase distribution were evaluated in cells exposed to these compounds for 24 h or 48 h. Three compounds were compared: podophyllotoxin 1, KL-3 derivative 7, and its analog lacking the ester group 11.
For cell cycle analysis, HeLa cells were treated for 24 or 48 h with compounds 7 and 11 at concentrations of 5 µM and 10 µM. After the incubation period, the cells were fixed in a freezing medium (ice-cold 70% ethanol solution in PBS) and stored at −20 °C. The cell suspension was then centrifuged, washed with PBS, and resuspended in PBS containing 200 µg of DNase-free RNase A (Sigma) for 20 min at room temperature. Propidium iodide (Sigma) was added to a final concentration of 5 µg/mL, and the cells were stained for at least 2 h at 4 °C. The analysis was performed using a FACSCalibur flow cytometer (Becton Dickinson, San Diego, CA, USA) and analyzed with CellQuest software, v.3.3.

[5] = system: MCF-7 (breast cancer) cells; assay: In vitro cytotoxicity, crystal violet assay, MCF-7; type: cell-based, human
Experimental: as §1, §4, §3

[6] = system: HaCaT (human keratinocyte) cells; assay: In vitro cytotoxicity, PrestoBlue assay, HaCaT (non-tumorigenic); type: cell-based; settings: 48 h, read-out: IC50 ± SD, HaCaT
[7] = system: HeLa (cervix cancer) cells; assay: In vitro cytotoxicity, crystal violet assay, HeLa; type: cell-based, human
Experimental: as §1, §4, §3

[8] = system: cancer cell lines (MCF-7, SKOV-3, B16F10, LOVO, and HeLa) and HaCaT; assay: In vitro cytotoxicity assay, results summarised over the cell line panel; type: cell-based; settings: for Cytotoxicity in words: all tested cell lines
Experimental: The cytotoxicity properties of semi-synthesized compounds 7–15 was evaluated against five types of cancer cell lines including, human: HeLa (cervix cancer), LoVo (colorectal cancer), MCF-7 (breast cancer), SKOV-3 (ovarian cancer), and murine: B16F10 (malignant melanoma). Thus, various human tumor cell lines representing major types of malignant cancers were included in the study protocol. Non-tumorigenic HaCaT cells were used as a representative model of normal (non-cancerous) cells. The crystal violet assay and PrestoBlue assay were used to evaluate the cytotoxic/cytostatic effect. We also included the cytotoxicity data of podophyllotoxin and etoposide as reference values.
as §1, §4, §2
Data analysis was carried out using GraphPad Prism 5.0.3. Calculations were performed using MS-Excel version 2021. […]

[9] = Homo sapiens, SK-OV-3; SKOV-3, crystal violet assay, 48 h; read-out: IC50 ± SD, SKOV-3
[10] = concentration and time not given
[11] = Homo sapiens, MCF7; MCF-7, crystal violet assay, 48 h; read-out: IC50 ± SD, MCF-7
[12] = Homo sapiens; HeLa, crystal violet assay, 48 h; read-out: IC50 ± SD, HeLa
[13] = Homo sapiens, SK-OV-3, 48 h, SKOV-3, crystal violet assay, read-out: IC50 ± SD, SKOV-3
[14] = Homo sapiens, MCF7, 48 h, MCF-7, crystal violet assay, read-out: IC50 ± SD, MCF-7
[15] = Homo sapiens, HeLa, 48 h, HeLa, crystal violet assay, 48 h; read-out: IC50 ± SD, HeLa
[16] = SKOV-3, crystal violet assay, 48 h; read-out: IC50 ± SD, SKOV-3
[17] = MCF-7, crystal violet assay, 48 h; read-out: IC50 ± SD, MCF-7
[18] = MCF-7, SKOV-3, B16F10, LOVO, HeLa, read-out: IC50, range over all tested cancer cell lines
[19] = HeLa, crystal violet assay, 48 h; read-out: IC50 ± SD, HeLa

| Structure (SMILES) | IC50 ([1]; Homo sapiens) [µM] | IC50 ([2]; Mus musculus, B16-F10, 48 h) [µM] | IC50 [3, 9] [µM] | IC50 [5, 11] [µM] | IC50 ([6]; Homo sapiens) [µM] | IC50 [7, 12] [µM] | Selectivity Index (SI) ([7]; SI = IC50HaCaT/IC50HeLa) | IC50 [3, 13] [µM] | IC50 [5, 14] [µM] | IC50 [7, 15] [µM] | Cytotoxicity in words [8] | other results |
| --- | --- | --- | --- | --- | --- | --- | --- | --- | --- | --- | --- | --- |
| COc1cc([C@@H]2c3cc4c(cc3[C@H](O)[C@H]3COC(=O)[C@H]23)OCO4)cc(OC)c1OC [Compound 1, Podophyllotoxin] | 0.033 ± 0.0077 | 0.092 ± 0.05 | 0.017 ± 0.0028 | 0.0039 ± 0.0005 | 0.0046 ± 0.0006 | 0.0089 ± 0.0003 | 0.52 |  |  |  |  | Cells arrested in the G2/M phase [4, 10]: approximately 90% |
| COc1cc([C@@H]2c3cc4c(cc3[C@@H](O[C@@H]3O[C@@H]5CO[C@@H](C)O[C@H]5[C@H](O)[C@H]3O)[C@H]3COC(=O)[C@H]23)OCO4)cc(OC)c1O [Compound 2, etoposide, reference compound] | 2.48 ± 0.47 | 6.68 ± 2.32 |  |  | 1.32 ± 0.16 |  | 0.23 | 3.15 ± 0.38 | 0.31 ± 0.017 | 5.73 ± 1.48 |  |  |
| COC(=O)C1C(c2nc3ccccc3s2)=Cc2cc3c(cc2C1c1cc(OC)c(OC)c(OC)c1)OCO3 (stereo not drawn) [Compound 7] |  |  |  |  |  |  | 1.26 |  |  |  |  | IC50 [1]: 0.83 ± 0.08 µM; IC50 ([2]; 48 h): 1.78 ± 0.55 µM; IC50 [3, 16]: 1.1 ± 0.13 µM; Cells arrested in the G2/M phase [4, 10]: approximately 90%; IC50 [5, 17]: 0.59 ± 0.05 µM; IC50 [8, 18]: 0.68 to 2.88 µM; IC50 [6]: 0.86 ± 0.05 µM; IC50 [7, 19]: 0.68 ± 0.05 µM |
| COC(=O)[C@H]1C(c2nc3cc(C(F)(F)F)ccc3s2)=Cc2cc3c(cc2[C@H]1c1cc(OC)c(OC)c(OC)c1)OCO3 [Compound 8] | > 20 | > 20 |  |  | > 20 |  |  | > 20 | > 20 | > 20 | inactive |  |
| COC(=O)C1C(c2nc3cc(Cl)ccc3s2)=Cc2cc3c(cc2C1c1cc(OC)c(OC)c(OC)c1)OCO3 (stereo not drawn) [Compound 9] | 11.1 ± 2.55 | > 20 | 10.4 ± 0.73 | 2.02 ± 0.11 | 13.2 ± 2.89 | 1.81 ± 0.13 | 7.31 |  |  |  |  | IC50 ([8]; read-out: IC50, range over HeLa and MCF-7): 1.81 to 2.02 µM |
| COC(=O)C1C(c2nc3ccccc3s2)=Cc2cc3c(cc2C1c1cc(OC)c(OC)c(OC)c1)OCO3 (stereo not drawn) [Compound 10] |  |  |  |  |  |  |  |  |  |  | no cytotoxicity | IC50 [1]: > 20 µM; IC50 ([2]; 48 h): > 20 µM; IC50 [3, 16]: > 20 µM; IC50 [5, 17]: > 20 µM; IC50 [6]: > 20 µM; IC50 [7, 19]: > 20 µM |
| COc1cc([C@H]2CC(c3nc4ccccc4s3)=Cc3cc4c(cc32)OCO4)cc(OC)c1OC [Compound 11] | 2.88 ± 0.87 | 1.93 ± 0.25 |  |  | 1.9 ± 0.14 |  |  | 1.79 ± 0.28 | 1.98 ± 0.49 | 1.54 ± 0.24 |  | Cells arrested in the G2/M phase ([4]; higher concentrations, after 48 h of exposure): approximately 43%; IC50 [8, 18]: 0.68 to 2.88 µM; IC50 ([8]; read-out: IC50, range over all tested cell lines): 1.54 to 2.88 µM |
| COC(=O)c1c(-c2nc3ccccc3s2)cc2cc3c(cc2c1-c1cc(OC)c(OC)c(OC)c1)OCO3 [Compound 12] | > 20 | > 20 |  |  | > 20 |  |  | > 20 | > 20 | > 20 | no effect |  |
| COc1cc([C@@H]2c3cc4c(cc3C=C(c3nc5ccccc5s3)[C@@H]2CO)OCO4)cc(OC)c1OC [Compound 13] | > 20 | > 20 | > 20 | > 20 | > 20 | > 20 |  |  |  |  | no effect |  |
| COC(=O)[C@H]1C(c2nc3ccccc3s2)=Cc2cc(O)c(O)cc2[C@H]1c1cc(OC)c(O)c(OC)c1 [Compound 14] | 11.7 ± 1.02 | > 20 |  |  | 13.1 ± 1.75 |  | <1 | 15.3 ± 1.31 | 11.9 ± 1.75 | > 20 |  |  |
| COC(=O)[C@H]1C(c2nc3ccccc3s2)=Cc2cc3c(cc2[C@H]1c1cc(OC)c(O)c(OC)c1)OCO3 [Compound 15] | 10.9 ± 0.95 | 3.76 ± 0.49 | 3.73 ± 0.75 | 3.44 ± 0.81 | 7.59 ± 0.76 | 2.49 ± 0.25 | 3.05 |  |  |  |  | IC50 ([8]; read-out: IC50, range over all the cell lines tested, except for LoVo cells): 2.49 to 3.76 µM |
